Measured values from patent publication US11566007B2, “Ras inhibitors” (Revolution Medicines, Inc., priority 2019, dated 2023).

Legend:
KRAS G12S = KRAS G12S (Homo sapiens (Human), UniProt P01116+P62937, G12S); assay: Ras-Raf (BRAF RBD) disruption / FRET / MOA assay, KRAS G12S; format: biochemical; conditions: Ras-Raf disruption/FRET/MOA assay; class symbols; read-out: KRAS G12S FRET data IC50
Protocol: (§1) The purpose of this biochemical assay is to measure the ability of test compounds to facilitate ternary complex formation between a nucleotide-loaded Ras isoform and cyclophilin A; the resulting ternary complex disrupts binding to a BRAF^RBD construct, inhibiting Ras signaling through a RAF effector.
(§2) Compound is present in plate wells as a 10-point 3-fold dilution series starting at a final concentration of 30 μM. After incubation at 25° C. for 3 hours, a mixture of Anti-His Eu-W1024 and anti-GST allophycocyanin is then added to assay sample wells at final concentrations of 10 nM and 50 nM, respectively, and the reaction incubated for an additional 1.5 hours. […] Compounds that facilitate disruption of a Ras:RAF complex are identified as those eliciting a decrease in the TR-FRET ratio relative to DMSO control wells.
(§3) This protocol may also be executed substituting other Ras proteins or nucleotides.
(§4) The purpose of this biochemical assay was to measure the ability of test compounds to facilitate ternary complex formation between a nucleotide-loaded K-Ras isoform and Cyclophilin A; the resulting ternary complex disrupts binding to a BRAF^RBD construct, inhibiting K-Ras signaling through a RAF effector. Data is reported as IC50 values.
as §2, with “Compound was” for “Compound is”, “allophycocyanin was” for “allophycocyanin is”, “a K-Ras:RAF” for “a Ras:RAF”, “complex were” for “complex are”

KRAS G12D = KRAS G12D (Homo sapiens (Human), UniProt P01116+P62937, G12D); assay: Ras-Raf (BRAF RBD) disruption / FRET / MOA assay, KRAS G12D; format: biochemical; conditions: Ras-Raf disruption/FRET/MOA assay; class symbols; read-out: KRAS G12D FRET data IC50
KRAS G12D, sequence (P01116-2 other isoform, or with tags, fused parts or gaps G12D): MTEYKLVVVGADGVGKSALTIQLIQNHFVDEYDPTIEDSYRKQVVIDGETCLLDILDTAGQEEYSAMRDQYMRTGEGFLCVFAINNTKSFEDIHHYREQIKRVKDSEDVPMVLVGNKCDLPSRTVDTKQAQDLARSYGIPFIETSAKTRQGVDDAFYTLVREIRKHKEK
KRAS G12D, sequence (P62937 whole entry): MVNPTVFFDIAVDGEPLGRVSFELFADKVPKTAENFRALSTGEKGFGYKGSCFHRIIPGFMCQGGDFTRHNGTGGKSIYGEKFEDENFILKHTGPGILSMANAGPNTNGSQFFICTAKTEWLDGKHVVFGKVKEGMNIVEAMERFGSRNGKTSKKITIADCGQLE
Protocol: as §1, §2, §3, §4
as §2, with “Compound was” for “Compound is”, “allophycocyanin was” for “allophycocyanin is”, “a K-Ras:RAF” for “a Ras:RAF”, “complex were” for “complex are”

KRAS G12S, sequence (P01116-2 other isoform, or with tags, fused parts or gaps G12S): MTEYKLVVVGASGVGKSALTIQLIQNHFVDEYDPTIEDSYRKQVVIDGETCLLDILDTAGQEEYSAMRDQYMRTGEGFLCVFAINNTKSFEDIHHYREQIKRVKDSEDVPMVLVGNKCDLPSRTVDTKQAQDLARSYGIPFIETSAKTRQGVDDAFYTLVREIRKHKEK
KRAS G12S, sequence (P62937 whole entry, canonical isoform): as the sequence (P62937 whole entry) above

## CCn1c(-c2ccccc2CN(C)C)c2c3cc(ccc31)-c1cc(O)cc(c1)C[C@H](NC(=O)[C@H](C(C)C)N(C)C(=O)c1ccc(NC(=O)/C=C/CN(C)C)cn1)C(=O)N1CCC[C@H](N1)C(=O)OCC(C)(C)C2 [Example A046]
KRAS G12S
  IC50: > 10 µM
KRAS G12D
  IC50: 1 to 10 µM

## CCn1c(-c2ccccc2CN(C)C)c2c3cc(ccc31)-c1cc(O)cc(c1)C[C@H](NC(=O)[C@H](C(C)C)N(C)C(=O)c1ccc(NC(=O)/C=C/CN(C)C)cc1)C(=O)N1CCC[C@H](N1)C(=O)OCC(C)(C)C2 [Example A049]
KRAS G12S
  IC50: > 10 µM
KRAS G12D
  IC50: > 10 µM

## C=CC(=O)N1CC[C@H](C(=O)N(C)[C@H](C(=O)N[C@H]2Cc3cc(O)cc(c3)-c3ccc4c(c3)c(c(-c3ccc(CN(C)C)cc3COC)n4CC)CC(C)(C)COC(=O)[C@@H]3CCCN(N3)C2=O)C(C)C)C1 [Example A051]
KRAS G12S
  IC50: 0.1 to 1 µM
KRAS G12D
  IC50: 1 to 10 µM

## C=CC(=O)N1C[C@H](C)[C@H](C(=O)N(C)[C@H](C(=O)N[C@H]2Cc3cc(O)cc(c3)-c3ccc4c(c3)c(c(-c3ccccc3CN(C)C)n4CC)CC(C)(C)COC(=O)[C@@H]3CCCN(N3)C2=O)C(C)C)C1 [Example A052]
KRAS G12S
  IC50: 0.1 to 1 µM
KRAS G12D
  IC50: 1 to 10 µM

## C=CC(=O)N1CC[C@H](C(=O)N(C)[C@H](C(=O)N[C@H]2Cc3cc(O)cc(c3)-c3ccc4c(c3)c(c(-c3cccnc3COC)n4CC)CC(C)(C)COC(=O)[C@@H]3CCCN(N3)C2=O)C2CCCC2)C1 [Example A055]
KRAS G12S
  IC50: 0.1 to 1 µM
KRAS G12D
  IC50: 1 to 10 µM

## C=CC(=O)N1C[C@H](C)[C@H](C(=O)N(C)[C@H](C(=O)N[C@H]2Cc3cc(O)cc(c3)-c3ccc4c(c3)c(c(-c3cccnc3COC)n4CC)CC(C)(C)COC(=O)[C@@H]3CCCN(N3)C2=O)C(C)C)C1 [Example A056]
KRAS G12S
  IC50: 0.1 to 1 µM
KRAS G12D
  IC50: 1 to 10 µM

## C=CC(=O)N1C[C@H](C)[C@H](C(=O)N(C)[C@H](C(=O)N[C@H]2Cc3cc(O)cc(c3)-c3ccc4c(c3)c(c(-c3cccnc3COC)n4CC)CC(C)(C)COC(=O)[C@@H]3CCCN(N3)C2=O)C2CCCC2)C1 [Example A057]
KRAS G12S
  IC50: 0.1 to 1 µM
KRAS G12D
  IC50: 1 to 10 µM

## C=CC(=O)N1CC[C@H](C(=O)N(C)[C@H](C(=O)N[C@H]2Cc3cc(O)cc(c3)-c3ccc4c(c3)c(c(C3=C(COC)COCC3)n4CC)CC(C)(C)COC(=O)[C@@H]3CCCN(N3)C2=O)C(C)C)C1 [Example A058]
KRAS G12S
  IC50: 0.1 to 1 µM
KRAS G12D
  IC50: 1 to 10 µM

## C=CC(=O)N1CC[C@H](C(=O)N(C)[C@H](C(=O)N[C@H]2Cc3cc(OC(C)=O)cc(c3)-c3ccc4c(c3)c(c(-c3ccccc3CN(C)C)n4CC)CC(C)(C)COC(=O)[C@@H]3CCCN(N3)C2=O)C(C)C)C1 [Example A059]
KRAS G12S
  IC50: > 10 µM
KRAS G12D
  IC50: > 10 µM

## C=CC(=O)N1CC[C@H](C(=O)N(C)[C@H](C(=O)N[C@H]2Cc3cc(O)cc(c3)-c3ccc4c(c3)c(c(-c3cccnc3COC)n4C)CC(C)(C)COC(=O)[C@@H]3CCCN(N3)C2=O)C(C)C)C1 [Example A066]
KRAS G12S
  IC50: 1 to 10 µM
KRAS G12D
  IC50: > 10 µM

## C=CC(=O)N1CC[C@@]2(CCN([C@H](C(=O)N[C@H]3Cc4cc(O)cc(c4)-c4ccc5c(c4)c(c(-c4ccccc4CCOC)n5CC)CC(C)(C)COC(=O)[C@@H]4CCCN(N4)C3=O)C(C)C)C2=O)C1 [Example A068]
KRAS G12S
  IC50: 1 to 10 µM
KRAS G12D
  IC50: > 10 µM

## C=CC(=O)N1CC[C@H](C(=O)N(C)[C@H](C(=O)N[C@H]2Cc3cc(O)cc(c3)-c3ccc4c(c3)c(c(-c3cncc(CN(C)C)c3)n4CC)CC(C)(C)COC(=O)[C@@H]3CCCN(N3)C2=O)C(C)C)C1 [Example A073]
KRAS G12S
  IC50: 1 to 10 µM
KRAS G12D
  IC50: > 10 µM

## C=CC(=O)N1CC[C@H](C(=O)N(C)[C@H](C(=O)N[C@H]2Cc3cc(OC(=O)N(C)CC(=O)O)cc(c3)-c3ccc4c(c3)c(c(-c3ccccc3CCOC)n4CC)CC(C)(C)COC(=O)[C@@H]3CCCN(N3)C2=O)C(C)C)C1 [Example A078]
KRAS G12S
  IC50: > 10 µM
KRAS G12D
  IC50: > 10 µM

## CCn1c(-c2ccccc2COC)c2c3cc(ccc31)-c1cc(O)cc(c1)C[C@H](NC(=O)[C@H](C(C)C)N(C)C(=O)[C@H]1CCN(C(=O)/C=C/CN(C)C)C1)C(=O)N1CCC[C@H](N1)C(=O)OCC(C)(C)C2 [Example A079]
KRAS G12S
  IC50: 0.1 to 1 µM
KRAS G12D
  IC50: 1 to 10 µM

## C=CC(=O)N1CC[C@H](C(=O)N(C)[C@H](C(=O)N[C@H]2Cc3cc(O)cc(c3)-c3ccc4c(c3)c(c(-c3c(CCOC)cccc3OC)n4CC)CC(C)(C)COC(=O)[C@@H]3CCCN(N3)C2=O)C(C)C)C1 [Example A080]
KRAS G12S
  IC50: > 10 µM
KRAS G12D
  IC50: > 10 µM

## C=CC(=O)N1CC[C@H](C(=O)N(C)[C@H](C(=O)N[C@H]2Cc3cc(O)cc(c3)-c3ccc4c(c3)c(c(-c3cncc(CCN(C)C)c3)n4CC)CC(C)(C)COC(=O)[C@@H]3CCCN(N3)C2=O)C(C)C)C1 [Example A081]
KRAS G12S
  IC50: 1 to 10 µM
KRAS G12D
  IC50: > 10 µM

## C=CC(=O)N1CC[C@H](C(=O)N(C)[C@H](C(=O)N[C@H]2Cc3cc(O)cc(c3)-c3ccc4c(c3)c(c(-c3ncccc3COC)n4CC)CC(C)(C)COC(=O)[C@@H]3CCCN(N3)C2=O)C(C)C)C1 [Example A084]
KRAS G12S
  IC50: > 10 µM
KRAS G12D
  IC50: > 10 µM

## C=CC(=O)N1CC[C@H](C(=O)N(C)[C@H](C(=O)N[C@H]2Cc3cc(O)cc(c3)-c3ccc4c(c3)c(c(-c3nccnc3COC)n4CC)CC(C)(C)COC(=O)[C@@H]3CCCN(N3)C2=O)C(C)C)C1 [Example A085]
KRAS G12S
  IC50: > 10 µM
KRAS G12D
  IC50: > 10 µM

## CCn1c(-c2cnccc2COC)c2c3cc(ccc31)-c1cc(O)cc(c1)C[C@H](NC(=O)[C@H](C(C)C)N(C)C(=O)[C@H]1CCN(C(=O)C#CCN(C)C)C1)C(=O)N1CCC[C@H](N1)C(=O)OCC(C)(C)C2 [Example A088]
KRAS G12S
  IC50: 0.1 to 1 µM
KRAS G12D
  IC50: 1 to 10 µM

## C=CC(=O)N1CC[C@H](C(=O)N(C)[C@H](C(=O)N[C@H]2Cc3cc(O)cc(c3)-c3ccc4c(c3)c(c(-c3cccnc3CN(C)C)n4CC)CC(C)(C)COC(=O)[C@@H]3CCCN(N3)C2=O)C(C)C)C1 [Example A092]
KRAS G12S
  IC50: 1 to 10 µM
KRAS G12D
  IC50: > 10 µM

## C=CC(=O)N1CC[C@H](C(=O)N(C)[C@H](C(=O)N[C@H]2Cc3cc(O)cc(c3)-c3ccc4c(c3)c(c(-c3cccnc3COC)n4CC#N)CC(C)(C)COC(=O)[C@@H]3CCCN(N3)C2=O)C(C)C)C1 [Example A093]
KRAS G12S
  IC50: 0.1 to 1 µM
KRAS G12D
  IC50: 1 to 10 µM

## C=CC(=O)N1CC[C@H](C(=O)N(C)[C@H](C(=O)N[C@H]2Cc3nc(cs3)-c3ccc4c(c3)c(c(-c3cccnc3COC)n4CC)CC(C)(C)COC(=O)[C@@H]3CCCN(N3)C2=O)C(C)C)C1 [Example A094]
KRAS G12S
  IC50: > 10 µM
KRAS G12D
  IC50: > 10 µM

## CCn1c(-c2cccnc2COC)c2c3cc(ccc31)-c1cc(O)cc(c1)C[C@H](NC(=O)[C@H](C(C)C)N(C)C(=O)C1CN(C(=O)C#CCN(C)C)C1)C(=O)N1CCC[C@H](N1)C(=O)OCC(C)(C)C2 [Example A097]
KRAS G12S
  IC50: 0.1 to 1 µM
KRAS G12D
  IC50: 1 to 10 µM

## C=CC(=O)N1CC[C@H](C(=O)N(C)[C@H](C(=O)N[C@H]2Cc3cc(O)cc(c3)-c3ccc4c(c3)c(c(-c3ccc(C5CCN(C)CC5)nc3)n4CC)CC(C)(C)COC(=O)[C@@H]3CCCN(N3)C2=O)C(C)C)C1 [Example A098]
KRAS G12S
  IC50: 1 to 10 µM
KRAS G12D
  IC50: > 10 µM

## C=CC(=O)N1CC[C@H](C(=O)N(C)[C@H](C(=O)N[C@H]2Cc3cc(O)cc(c3)-c3ccc4c(c3)c(c(-c3cnn(C)c3)n4CC)CC(C)(C)COC(=O)[C@@H]3CCCN(N3)C2=O)C(C)C)C1 [Example A099]
KRAS G12S
  IC50: 1 to 10 µM
KRAS G12D
  IC50: > 10 µM

## C=CC(=O)N1CC[C@H](C(=O)N(C)[C@H](C(=O)N[C@H]2Cc3cc(O)cc(c3)-c3ccc4c(c3)c(c(-c3ccc(CN5CC[C@@H](O)C5)cc3)n4CC)CC(C)(C)COC(=O)[C@@H]3CCCN(N3)C2=O)C(C)C)C1 [Examples A001]
KRAS G12S
  IC50: 1 to 10 µM
KRAS G12D
  IC50: > 10 µM
